Experiment [1] deals with T1, Serine/threonine-protein kinase DCLK2 (Homo sapiens) (UniProt Q8N568).
T1 sequence (whole entry): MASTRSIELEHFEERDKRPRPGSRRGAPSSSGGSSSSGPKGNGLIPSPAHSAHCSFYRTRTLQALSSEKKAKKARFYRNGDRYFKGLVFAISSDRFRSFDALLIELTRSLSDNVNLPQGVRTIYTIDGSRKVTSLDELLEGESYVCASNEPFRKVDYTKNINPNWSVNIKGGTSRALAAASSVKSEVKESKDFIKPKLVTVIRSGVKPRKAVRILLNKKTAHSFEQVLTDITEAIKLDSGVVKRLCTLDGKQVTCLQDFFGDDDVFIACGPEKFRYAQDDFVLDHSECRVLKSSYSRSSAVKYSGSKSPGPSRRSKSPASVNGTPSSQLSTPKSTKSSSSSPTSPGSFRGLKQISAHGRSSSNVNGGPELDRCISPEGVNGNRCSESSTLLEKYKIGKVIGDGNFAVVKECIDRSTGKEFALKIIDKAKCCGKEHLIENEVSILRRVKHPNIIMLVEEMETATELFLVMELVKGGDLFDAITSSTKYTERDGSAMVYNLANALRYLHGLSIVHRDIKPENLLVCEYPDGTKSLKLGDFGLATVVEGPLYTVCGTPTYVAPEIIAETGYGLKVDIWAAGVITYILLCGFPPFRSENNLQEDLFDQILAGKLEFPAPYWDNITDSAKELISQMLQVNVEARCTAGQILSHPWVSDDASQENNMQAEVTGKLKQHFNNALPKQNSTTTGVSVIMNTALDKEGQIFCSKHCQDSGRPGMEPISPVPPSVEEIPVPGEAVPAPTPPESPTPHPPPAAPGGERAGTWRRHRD
As to the kind of experiment: Selectivity interaction (Ambit KINOMEscan and KiNATiv profiling in Jurkat cells) EUB0000090b DCLK2. It counts as cell-based. The note with it: at 1 µM.

Experiment [2] concerns the target Tyrosine-protein kinase Yes (Homo sapiens) (UniProt P07947). Nature of the experiment: Selectivity interaction (KinomeScan (DiscoverX)) EUB0000092b YES1. The settings on record: at 10 µM.
Experiment [3] has as its target Serine/threonine-protein kinase PAK 3 (Homo sapiens) (UniProt O75914). As to the kind of experiment: Selectivity interaction (Kinase screening (Nanosyn)) EUB0000604a PAK3.
Experiment [4] has as its target Tyrosine-protein kinase ABL1 (Homo sapiens, UniProt P00519). As to the kind of experiment: Selectivity interaction (KinomeScan (DiscoverX)) EUB0000045b ABL1. The note with it: at 10 µM.
For experiment [5], the target named is T2, Dual specificity mitogen-activated protein kinase kinase 3 (Homo sapiens) (UniProt P46734).
T2 sequence (whole entry): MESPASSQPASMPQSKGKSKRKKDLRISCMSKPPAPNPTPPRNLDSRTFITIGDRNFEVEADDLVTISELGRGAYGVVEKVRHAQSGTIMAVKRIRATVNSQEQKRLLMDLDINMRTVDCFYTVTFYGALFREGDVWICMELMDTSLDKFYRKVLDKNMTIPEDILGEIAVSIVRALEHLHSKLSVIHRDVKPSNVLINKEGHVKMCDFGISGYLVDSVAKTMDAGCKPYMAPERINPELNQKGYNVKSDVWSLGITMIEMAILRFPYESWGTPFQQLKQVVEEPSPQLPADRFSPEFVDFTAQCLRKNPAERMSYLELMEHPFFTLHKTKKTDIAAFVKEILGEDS
Nature of the experiment: Selectivity interaction (ActivX KiNativ screen (kinase selectivity in THP-1 cell lysates)) EUB0000639a MAP2K3. The note with it: lysate, at 5 µM. It is filed as subcellular.

The target in experiment [6] is Ephrin type-A receptor 2 (Homo sapiens) (UniProt P29317). Nature of the experiment: Selectivity interaction (ActivX KiNativ screen (kinase selectivity in THP-1 cell lysates)) EUB0000639a EPHA2. It is filed as subcellular. The settings on record: lysate.
Experiment [7] addresses Vascular endothelial growth factor receptor 1 (Homo sapiens) (UniProt P17948). As to the kind of experiment: Selectivity interaction (Kinase panel (DSF assay)) EUB0001559a FLT1.
The target in experiment [8] is T3, Serine/threonine-protein kinase haspin (Homo sapiens) (UniProt Q8TF76).
T3 sequence (whole entry): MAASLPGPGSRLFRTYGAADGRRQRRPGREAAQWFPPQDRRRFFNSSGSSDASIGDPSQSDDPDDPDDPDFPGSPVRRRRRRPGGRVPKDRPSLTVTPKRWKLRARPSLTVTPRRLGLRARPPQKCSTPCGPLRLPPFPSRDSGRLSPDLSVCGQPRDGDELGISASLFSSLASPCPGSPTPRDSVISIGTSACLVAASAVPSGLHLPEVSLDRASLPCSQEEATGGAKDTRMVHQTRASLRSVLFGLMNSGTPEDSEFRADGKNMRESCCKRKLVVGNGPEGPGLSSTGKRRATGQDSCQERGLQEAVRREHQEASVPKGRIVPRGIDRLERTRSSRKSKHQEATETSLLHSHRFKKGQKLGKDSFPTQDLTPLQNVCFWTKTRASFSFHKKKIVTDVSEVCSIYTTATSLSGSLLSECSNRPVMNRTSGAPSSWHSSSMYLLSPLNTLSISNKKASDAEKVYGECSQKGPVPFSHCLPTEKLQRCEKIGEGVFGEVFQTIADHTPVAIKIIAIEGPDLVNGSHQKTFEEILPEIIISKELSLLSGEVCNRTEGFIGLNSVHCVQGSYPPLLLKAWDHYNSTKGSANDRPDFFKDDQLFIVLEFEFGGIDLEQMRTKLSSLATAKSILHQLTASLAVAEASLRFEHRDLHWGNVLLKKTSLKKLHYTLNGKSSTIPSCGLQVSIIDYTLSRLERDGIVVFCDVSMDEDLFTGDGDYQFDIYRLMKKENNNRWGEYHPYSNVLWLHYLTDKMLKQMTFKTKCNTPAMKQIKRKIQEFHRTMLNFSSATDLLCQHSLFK
As to the kind of experiment: Selectivity interaction (KinomeScan (DiscoverX)) EUB0001619a GSG2. The note with it: at 1 µM.

Experiment [9] in a line: Selectivity interaction (KinomeScan (DiscoverX)) EUB0001619a CDK2H. The note with it: at 1 µM.
Experiment [10] addresses Serine/threonine-protein kinase mTOR (Homo sapiens, UniProt P42345). As to the kind of experiment: Selectivity interaction (KinomeScan (DiscoverX)) EUB0000618a MTOR. The note with it: at 10 µM.
For experiment [11], the target named is Serine/threonine-protein kinase N1 (Homo sapiens, UniProt Q16512). As to the kind of experiment: Selectivity interaction (KinomeScan (DiscoverX)) EUB0000618a PKN1. The note with it: at 10 µM.
Chain of Serine/threonine-protein kinase N1 (Q16512 2-942 limits assumed): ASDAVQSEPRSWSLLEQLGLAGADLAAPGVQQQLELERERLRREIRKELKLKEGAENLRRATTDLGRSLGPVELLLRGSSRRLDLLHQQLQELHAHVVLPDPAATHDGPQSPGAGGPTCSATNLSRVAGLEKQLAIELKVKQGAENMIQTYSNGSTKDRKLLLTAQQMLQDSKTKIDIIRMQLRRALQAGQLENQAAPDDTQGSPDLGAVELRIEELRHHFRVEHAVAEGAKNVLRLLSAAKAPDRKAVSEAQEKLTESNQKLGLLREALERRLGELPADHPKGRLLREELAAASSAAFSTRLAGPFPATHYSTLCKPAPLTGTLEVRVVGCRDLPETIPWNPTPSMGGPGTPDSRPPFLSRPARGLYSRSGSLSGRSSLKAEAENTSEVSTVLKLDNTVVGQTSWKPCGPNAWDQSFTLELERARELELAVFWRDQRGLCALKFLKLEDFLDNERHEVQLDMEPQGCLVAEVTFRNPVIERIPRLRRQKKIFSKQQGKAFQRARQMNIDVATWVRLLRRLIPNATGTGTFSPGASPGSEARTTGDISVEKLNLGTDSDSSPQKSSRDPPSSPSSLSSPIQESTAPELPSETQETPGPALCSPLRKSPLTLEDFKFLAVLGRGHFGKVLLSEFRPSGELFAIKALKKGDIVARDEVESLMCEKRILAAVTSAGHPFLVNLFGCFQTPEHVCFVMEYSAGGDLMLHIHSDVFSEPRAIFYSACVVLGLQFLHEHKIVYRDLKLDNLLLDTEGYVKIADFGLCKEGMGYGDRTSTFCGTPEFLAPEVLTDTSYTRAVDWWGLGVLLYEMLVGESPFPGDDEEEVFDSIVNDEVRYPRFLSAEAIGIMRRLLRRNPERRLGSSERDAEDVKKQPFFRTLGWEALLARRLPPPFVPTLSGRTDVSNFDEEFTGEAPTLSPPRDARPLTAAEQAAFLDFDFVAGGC

Chain of Ephrin type-A receptor 2 (Homo sapiens) (P29317 whole entry): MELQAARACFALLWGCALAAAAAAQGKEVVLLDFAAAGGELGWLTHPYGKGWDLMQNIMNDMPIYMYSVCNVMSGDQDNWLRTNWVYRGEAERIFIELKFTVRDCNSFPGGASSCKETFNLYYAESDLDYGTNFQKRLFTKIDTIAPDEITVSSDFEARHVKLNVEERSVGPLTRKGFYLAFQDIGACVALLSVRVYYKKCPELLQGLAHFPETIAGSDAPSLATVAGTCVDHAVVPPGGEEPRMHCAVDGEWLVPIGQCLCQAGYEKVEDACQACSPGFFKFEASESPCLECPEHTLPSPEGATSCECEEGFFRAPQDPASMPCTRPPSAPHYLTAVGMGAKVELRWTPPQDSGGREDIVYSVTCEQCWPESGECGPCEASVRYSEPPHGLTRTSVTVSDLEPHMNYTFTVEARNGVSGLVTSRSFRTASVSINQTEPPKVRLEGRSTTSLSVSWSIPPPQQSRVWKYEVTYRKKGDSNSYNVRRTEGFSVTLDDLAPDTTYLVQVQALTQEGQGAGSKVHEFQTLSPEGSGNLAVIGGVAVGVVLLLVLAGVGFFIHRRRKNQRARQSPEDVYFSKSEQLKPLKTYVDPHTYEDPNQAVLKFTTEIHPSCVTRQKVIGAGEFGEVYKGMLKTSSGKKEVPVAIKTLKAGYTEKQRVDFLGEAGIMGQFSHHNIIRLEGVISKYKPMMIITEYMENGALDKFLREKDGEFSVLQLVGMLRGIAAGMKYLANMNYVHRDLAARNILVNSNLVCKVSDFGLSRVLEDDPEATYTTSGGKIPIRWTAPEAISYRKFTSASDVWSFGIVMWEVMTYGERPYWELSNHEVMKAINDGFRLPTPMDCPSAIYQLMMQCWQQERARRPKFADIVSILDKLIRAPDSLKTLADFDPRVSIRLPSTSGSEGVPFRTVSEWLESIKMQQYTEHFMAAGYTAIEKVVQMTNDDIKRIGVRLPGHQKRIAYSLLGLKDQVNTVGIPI
Chain of Tyrosine-protein kinase ABL1 (P00519 whole entry): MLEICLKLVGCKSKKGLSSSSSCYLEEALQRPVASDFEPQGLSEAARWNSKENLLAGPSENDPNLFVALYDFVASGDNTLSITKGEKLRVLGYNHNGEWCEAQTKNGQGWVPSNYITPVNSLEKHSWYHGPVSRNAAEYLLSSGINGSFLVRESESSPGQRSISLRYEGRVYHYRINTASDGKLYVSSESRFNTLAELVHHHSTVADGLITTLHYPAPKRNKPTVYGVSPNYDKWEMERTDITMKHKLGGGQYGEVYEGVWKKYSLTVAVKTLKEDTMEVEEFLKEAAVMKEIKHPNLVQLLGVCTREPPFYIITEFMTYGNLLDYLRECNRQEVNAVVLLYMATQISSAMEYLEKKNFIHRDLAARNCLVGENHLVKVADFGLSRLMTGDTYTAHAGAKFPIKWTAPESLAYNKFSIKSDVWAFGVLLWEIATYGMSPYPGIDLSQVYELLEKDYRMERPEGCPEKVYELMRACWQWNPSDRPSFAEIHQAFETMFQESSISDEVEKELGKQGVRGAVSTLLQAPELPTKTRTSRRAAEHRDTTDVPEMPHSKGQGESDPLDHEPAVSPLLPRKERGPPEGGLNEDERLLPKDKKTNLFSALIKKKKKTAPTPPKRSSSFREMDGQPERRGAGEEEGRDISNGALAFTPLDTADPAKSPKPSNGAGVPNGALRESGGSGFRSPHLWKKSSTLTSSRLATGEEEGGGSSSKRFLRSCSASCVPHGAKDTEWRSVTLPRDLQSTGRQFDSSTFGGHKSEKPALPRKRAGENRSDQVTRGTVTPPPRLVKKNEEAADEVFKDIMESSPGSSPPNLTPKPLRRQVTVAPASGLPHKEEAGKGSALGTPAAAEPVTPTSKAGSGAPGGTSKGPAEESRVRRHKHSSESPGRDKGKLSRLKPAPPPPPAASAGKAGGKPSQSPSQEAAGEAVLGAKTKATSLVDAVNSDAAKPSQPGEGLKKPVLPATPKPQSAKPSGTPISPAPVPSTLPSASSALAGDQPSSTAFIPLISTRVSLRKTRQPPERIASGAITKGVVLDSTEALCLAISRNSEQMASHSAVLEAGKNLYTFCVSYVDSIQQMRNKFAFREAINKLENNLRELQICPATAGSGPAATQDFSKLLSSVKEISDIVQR
Chain of Vascular endothelial growth factor receptor 1 (Homo sapiens) (P17948 whole entry): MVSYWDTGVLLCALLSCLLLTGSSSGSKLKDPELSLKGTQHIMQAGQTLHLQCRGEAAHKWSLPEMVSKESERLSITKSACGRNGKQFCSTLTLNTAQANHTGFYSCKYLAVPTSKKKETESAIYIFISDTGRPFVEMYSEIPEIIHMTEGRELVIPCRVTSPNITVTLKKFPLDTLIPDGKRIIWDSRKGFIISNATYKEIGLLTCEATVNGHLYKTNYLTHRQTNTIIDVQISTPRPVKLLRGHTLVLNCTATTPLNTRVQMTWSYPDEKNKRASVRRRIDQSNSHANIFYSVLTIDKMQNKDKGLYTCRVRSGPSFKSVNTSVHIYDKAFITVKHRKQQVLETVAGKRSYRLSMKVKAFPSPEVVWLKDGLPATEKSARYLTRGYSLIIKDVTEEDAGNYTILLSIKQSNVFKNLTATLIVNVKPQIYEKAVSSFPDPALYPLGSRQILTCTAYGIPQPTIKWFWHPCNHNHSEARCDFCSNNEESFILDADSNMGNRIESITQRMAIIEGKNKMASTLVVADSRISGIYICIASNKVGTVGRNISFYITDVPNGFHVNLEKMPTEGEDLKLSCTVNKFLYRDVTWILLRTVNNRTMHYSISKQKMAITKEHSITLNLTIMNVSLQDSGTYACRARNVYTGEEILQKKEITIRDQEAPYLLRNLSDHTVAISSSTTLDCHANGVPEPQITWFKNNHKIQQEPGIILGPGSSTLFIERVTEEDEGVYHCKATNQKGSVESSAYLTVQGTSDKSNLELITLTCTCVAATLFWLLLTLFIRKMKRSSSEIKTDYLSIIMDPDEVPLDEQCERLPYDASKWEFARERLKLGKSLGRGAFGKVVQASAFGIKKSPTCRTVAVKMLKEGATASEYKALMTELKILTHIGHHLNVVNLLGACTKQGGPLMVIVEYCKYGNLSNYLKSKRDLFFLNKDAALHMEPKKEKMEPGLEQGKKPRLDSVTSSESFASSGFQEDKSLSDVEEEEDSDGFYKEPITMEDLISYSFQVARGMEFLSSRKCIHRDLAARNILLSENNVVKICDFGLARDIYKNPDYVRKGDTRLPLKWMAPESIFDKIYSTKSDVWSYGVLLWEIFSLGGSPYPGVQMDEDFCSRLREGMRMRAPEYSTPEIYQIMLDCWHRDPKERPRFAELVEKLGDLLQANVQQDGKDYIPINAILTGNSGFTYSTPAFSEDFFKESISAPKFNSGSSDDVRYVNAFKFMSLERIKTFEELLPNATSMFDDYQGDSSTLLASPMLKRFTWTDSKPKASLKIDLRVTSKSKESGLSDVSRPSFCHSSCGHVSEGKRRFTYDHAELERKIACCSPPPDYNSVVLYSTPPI
Chain of Serine/threonine-protein kinase PAK 3 (Homo sapiens) (O75914 whole entry, looked up): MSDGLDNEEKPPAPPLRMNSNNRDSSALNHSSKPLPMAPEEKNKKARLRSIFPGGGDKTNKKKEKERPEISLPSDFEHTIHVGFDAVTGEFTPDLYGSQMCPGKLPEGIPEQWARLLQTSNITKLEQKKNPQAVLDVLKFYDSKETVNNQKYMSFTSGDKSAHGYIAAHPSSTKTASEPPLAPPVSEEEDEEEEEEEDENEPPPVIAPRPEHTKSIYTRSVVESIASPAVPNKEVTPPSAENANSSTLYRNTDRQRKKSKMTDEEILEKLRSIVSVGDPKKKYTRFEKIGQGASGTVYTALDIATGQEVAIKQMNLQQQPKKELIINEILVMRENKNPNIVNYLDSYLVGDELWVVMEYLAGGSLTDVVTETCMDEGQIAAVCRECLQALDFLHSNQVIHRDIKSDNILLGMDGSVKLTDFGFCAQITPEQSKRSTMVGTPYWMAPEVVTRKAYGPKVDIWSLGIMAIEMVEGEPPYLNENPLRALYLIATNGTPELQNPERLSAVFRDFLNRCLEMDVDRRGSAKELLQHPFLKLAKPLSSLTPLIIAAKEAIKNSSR

Take `CN(C)C/C=C/C(=O)Nc1ccc(C(=O)N2CCCC(Nc3ncc(Cl)c(-c4c[nH]c5ccccc45)n3)C2)cc1` (stereo not given): the % of control in experiment [1] was found to be 78%.

Take `CCC(=O)N1CCN(c2ccc(-n3c(=O)ccc4cnc5ccc(-c6cnc7ccccc7c6)cc5c43)cc2C(F)(F)F)CC1`: the % of control in [2] was 74%.

As to `Cc1cnc(Nc2ccc(F)cc2Cl)nc1-c1c[nH]c(C(=O)N[C@H](CO)c2cccc(Cl)c2)c1`, the % of inhibition in experiment [3] amounted to 3%.

For `C=CC(=O)Nc1cc(-n2c(=O)ccc3cnc4ccc(-c5ccc(NS(C)(=O)=O)cc5)cc4c32)ccc1C`, the % of control in experiment [4] is 79%.

On to `CC[C@@H]1[C@H](F)C(=O)N[C@@H]1COc1nccc2cc(C(N)=O)c(OC)cc12` [ZIMLOVISERTIB], for which the % of inhibition is -185% in experiment [5]; -12.3% in experiment [6] (at 0.01 µM); -11.2% in experiment [6] (at 0.04 µM); 2.2% in experiment [6] (at 0.2 µM); -12.7% in experiment [6] (at 1 µM); 14.3% in experiment [6] (at 5 µM).

`CN(C(=O)c1cnn2cccnc12)c1cc2c(cc1N1CCOCC1)C(=O)N(C[C@@H](F)C(C)(C)O)C2` came in with a dTM in experiment [7] of -0.1 K.

As to `N#Cc1cccc(-c2c[nH]c3ncnc(N4CCOCC4)c23)c1`, the % of control in [8] worked out at 46%; in experiment [9], 100%.

In the case of `O[C@H]1CC[C@H](Nc2ncc3nc(Nc4c(F)cc(F)cc4F)n([C@H]4CCOC4)c3n2)CC1`, the % of control in experiment [10] came to 68%; in experiment [11], 91%.

These data come from ChEMBL document CHEMBL5465560, “Selectivity Literature for EUbOPEN Chemogenomic Library” (2024).
